Experimental data published in ChEMBL document CHEMBL1201862, “PubChem BioAssay data set” (2004).
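In this assay, cells in 96-well plates receive the compound at five concentrations for 48 hours. Endpoints are linearly interpolated between the surrounding concentrations. Abbreviation: GI50, concentration required for 50% inhibition of growth.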 The source made the active and inactive calls. Rule as the data show it: active = GI50 up to about 1.1 µM and inactive = higher.

How the values were obtained:
Test in all cases: growth of human tumour cells (NCI), 48 h
NCI-H460 = test system: NCI-H460
HCT-116 = test system: HCT-116
OVCAR-4 = test system: OVCAR-4
MDA-MB-231 = test system: MDA-MB-231
HOP-62 = test system: HOP-62
SK-MEL-2 = test system: SK-MEL-2
NCI-H23 = test system: NCI-H23
SK-MEL-5 = test system: SK-MEL-5
DU-145 = test system: DU-145
IGROV-1 = test system: IGROV-1
SN12C = test system: SN12C
OVCAR-5 = test system: OVCAR-5
TK-10 = test system: TK-10
MDA-N = test system: MDA-N
ACHN = test system: ACHN
SK-OV-3 = test system: SK-OV-3
UO-31 = test system: UO-31
HCC 2998 = test system: HCC 2998
EKVX = test system: EKVX
UACC-257 = test system: UACC-257

Measured: GI50

O=C(O)c1ccccc1/C=N\N(CCO)C1=NCCN1
inactive: NCI-H460 > 100 µM | HCT-116 > 100 µM | OVCAR-4 > 100 µM | MDA-MB-231 > 100 µM | HOP-62 > 100 µM | SK-MEL-2 > 100 µM | NCI-H23 > 100 µM | SK-MEL-5 > 100 µM | DU-145 > 100 µM | IGROV-1 > 100 µM | SN12C > 100 µM | OVCAR-5 > 100 µM | TK-10 > 100 µM | MDA-N > 100 µM | ACHN > 100 µM | SK-OV-3 > 100 µM | UO-31 > 100 µM | HCC 2998 > 100 µM | EKVX > 100 µM

Cc1ccccc1C(=O)C#Cc1cn(C2CC(O)C(CO)O2)c(=O)[nH]c1=O (centres undefined)
inactive: NCI-H460 > 100 µM | HCT-116 > 100 µM | OVCAR-4 > 100 µM | MDA-MB-231 > 100 µM | HOP-62 > 100 µM | SK-MEL-2 > 100 µM | NCI-H23 > 100 µM | SK-MEL-5 > 100 µM | DU-145 > 100 µM | IGROV-1 > 100 µM | SN12C > 100 µM | TK-10 > 100 µM | MDA-N > 100 µM | ACHN > 100 µM | SK-OV-3 > 100 µM | UO-31 > 100 µM | UACC-257 > 100 µM | HCC 2998 > 100 µM | EKVX > 100 µM

CC1OC(OC2C(O)COC(OC3C(C)OC(OC4C(OC(=O)[C@]56CCC(C)(C)C[C@@H]5C5=CCC7[C@@]8(C)C[C@H](O)[C@H](OC9OC(CO)C(O)C(O)C9O)[C@@](C)(CO)[C@@H]8CC[C@@]7(C)[C@]5(C)CC6)OCC(O)C4O)C(O)C3OC3OCC(O)(CO)C3O)C2O)C(O)C(O)C1O (some centres undefined)
inactive: NCI-H460 18.7 µM | HCT-116 13.9 µM | OVCAR-4 15.7 µM | MDA-MB-231 12.6 µM | HOP-62 15.1 µM | SK-MEL-2 13.8 µM | NCI-H23 9.31 µM | SK-MEL-5 13.3 µM | DU-145 14.3 µM | IGROV-1 13.3 µM | SN12C 4.3 µM | OVCAR-5 8.93 µM | TK-10 14.5 µM | MDA-N 12.6 µM | ACHN 12.5 µM | SK-OV-3 17.7 µM | UO-31 3.36 µM | UACC-257 9.77 µM | HCC 2998 5.18 µM | EKVX 4.16 µM

Cc1cc2c(c(C(=O)NCC(=O)N[C@@H](C)C(=O)OCc3ccccc3)c1)Oc1c(cc(C)cc1C(=O)NCC(=O)N[C@@H](C)C(=O)OCc1ccccc1)S2
inactive: NCI-H460 > 100 µM | HCT-116 > 100 µM | OVCAR-4 > 100 µM | MDA-MB-231 34.4 µM | HOP-62 71.3 µM | SK-MEL-2 24.9 µM | NCI-H23 > 100 µM | SK-MEL-5 > 100 µM | DU-145 > 100 µM | IGROV-1 99.1 µM | SN12C > 100 µM | OVCAR-5 > 100 µM | MDA-N > 100 µM | ACHN > 100 µM | SK-OV-3 > 100 µM | UO-31 > 100 µM | UACC-257 > 100 µM | HCC 2998 34.7 µM | EKVX > 100 µM

C=CCC1NCCC2=C1C(S(=O)(=O)c1ccc(C)cc1)c1ccccc12 (centres undefined)
inactive: NCI-H460 11.7 µM | HCT-116 11.1 µM | OVCAR-4 12.1 µM | MDA-MB-231 12.1 µM | HOP-62 14.5 µM | SK-MEL-2 13.5 µM | NCI-H23 18 µM | SK-MEL-5 14.3 µM | DU-145 11.9 µM | IGROV-1 8.11 µM | SN12C 14.4 µM | OVCAR-5 18.1 µM | TK-10 16.4 µM | MDA-N 6.9 µM | ACHN 7.16 µM | SK-OV-3 16.6 µM | UO-31 7.67 µM | UACC-257 20.2 µM | HCC 2998 1.85 µM | EKVX 18 µM

O=S1(=O)OCc2ccccc21
inactive: NCI-H460 34.4 µM | HCT-116 37.3 µM | OVCAR-4 51.1 µM | MDA-MB-231 20.8 µM | HOP-62 10.2 µM | SK-MEL-2 > 100 µM | NCI-H23 > 100 µM | SK-MEL-5 > 100 µM | DU-145 > 100 µM | IGROV-1 > 100 µM | SN12C > 100 µM | OVCAR-5 > 100 µM | TK-10 > 100 µM | MDA-N > 100 µM | ACHN 61.5 µM | SK-OV-3 > 100 µM | UO-31 > 100 µM | UACC-257 > 100 µM | HCC 2998 > 100 µM | EKVX > 100 µM

O=C1CSC(c2ccc([N+](=O)[O-])cc2)N1c1ccc(-n2c(-c3ccccc3)nc3ccccc3c2=O)cc1 (centres undefined)
inactive: NCI-H460 > 100 µM | HCT-116 61.9 µM | OVCAR-4 21.3 µM | MDA-MB-231 70.3 µM | HOP-62 > 100 µM | SK-MEL-2 > 100 µM | NCI-H23 > 100 µM | SK-MEL-5 82.2 µM | DU-145 > 100 µM | IGROV-1 > 100 µM | SN12C > 100 µM | OVCAR-5 > 10 µM | TK-10 > 100 µM | MDA-N > 100 µM | ACHN 77.8 µM | SK-OV-3 > 100 µM | UO-31 2.56 µM | UACC-257 > 100 µM | HCC 2998 41 µM | EKVX > 100 µM

CO/N=C(\C)c1cccc(Nc2c3ccccc3nc3occc23)c1
inactive: NCI-H460 5.81 µM | HCT-116 8.34 µM | OVCAR-4 4.75 µM | MDA-MB-231 9.79 µM | HOP-62 6.37 µM | SK-MEL-2 3.56 µM | NCI-H23 7.45 µM | SK-MEL-5 6.22 µM | DU-145 18.9 µM | IGROV-1 5.05 µM | SN12C 16 µM | OVCAR-5 20.5 µM | TK-10 20.4 µM | MDA-N 4.35 µM | SK-OV-3 14.4 µM | UO-31 12.8 µM | UACC-257 12.5 µM | HCC 2998 6.93 µM | EKVX 11.1 µM

CC(C)(C)n1c(=O)n2c(-c3ccccc3)c(-c3ccccc3)n2c1=O
inactive: NCI-H460 > 100 µM | HCT-116 25.4 µM | OVCAR-4 72.6 µM | MDA-MB-231 > 100 µM | SK-MEL-2 28.8 µM | NCI-H23 > 100 µM | SK-MEL-5 71.8 µM | DU-145 > 100 µM | IGROV-1 > 100 µM | SN12C > 100 µM | OVCAR-5 > 100 µM | TK-10 > 100 µM | MDA-N > 100 µM | ACHN > 100 µM | SK-OV-3 > 100 µM | UO-31 12.5 µM | UACC-257 > 100 µM | HCC 2998 49.7 µM | EKVX > 100 µM

COc1ccc(O)c(/C(C)=N/NC(=S)N(C)C)c1
inactive: NCI-H460 15.6 µM | HCT-116 19.6 µM | OVCAR-4 2.63 µM | MDA-MB-231 > 20.6 µM | HOP-62 21.9 µM | SK-MEL-2 > 43.2 µM | NCI-H23 24.7 µM | SK-MEL-5 9.18 µM | DU-145 44 µM | IGROV-1 14.3 µM | SN12C > 44.2 µM | OVCAR-5 > 61.9 µM | MDA-N > 73.3 µM | ACHN 13.5 µM | SK-OV-3 42.3 µM | UO-31 17.7 µM | UACC-257 63.4 µM | HCC 2998 > 61.9 µM | EKVX 31.9 µM

CC1=NCCN=C(C)C1/N=N/c1ccc2[nH]c(C)nc2c1
inactive: NCI-H460 18.2 µM | HCT-116 13.2 µM | OVCAR-4 12.4 µM | MDA-MB-231 12.7 µM | HOP-62 22.1 µM | SK-MEL-2 19.2 µM | NCI-H23 13.8 µM | DU-145 16.1 µM | IGROV-1 25.9 µM | SN12C 11.7 µM | OVCAR-5 17.6 µM | TK-10 19.7 µM | MDA-N 10.2 µM | ACHN 15.6 µM | SK-OV-3 19.1 µM | UACC-257 11.3 µM | HCC 2998 14 µM | EKVX 15.8 µM

[N-]=[N+]=NC1(c2ccccc2)C(=O)Nc2ccccc2C1=O (centres undefined)
inactive: NCI-H460 37.5 µM | HCT-116 30.3 µM | OVCAR-4 54.7 µM | MDA-MB-231 55.2 µM | HOP-62 41.8 µM | SK-MEL-2 24.4 µM | NCI-H23 34.9 µM | SK-MEL-5 14.9 µM | DU-145 75.5 µM | IGROV-1 37.1 µM | SN12C 48.8 µM | OVCAR-5 30 µM | TK-10 49.5 µM | MDA-N 21.4 µM | ACHN 34.6 µM | SK-OV-3 55.6 µM | UO-31 22.1 µM | UACC-257 78.2 µM | HCC 2998 57.8 µM

c1cc2nnc1SCCCSc1ccc(nn1)SCCCSc1ccc(nn1)SCCCS2
inactive: NCI-H460 > 100 µM | HCT-116 > 100 µM | OVCAR-4 > 100 µM | MDA-MB-231 97.3 µM | HOP-62 39.6 µM | SK-MEL-2 83.8 µM | NCI-H23 > 100 µM | SK-MEL-5 > 100 µM | DU-145 > 100 µM | IGROV-1 > 100 µM | SN12C > 100 µM | OVCAR-5 > 100 µM | TK-10 > 100 µM | MDA-N > 100 µM | ACHN > 100 µM | SK-OV-3 > 100 µM | UO-31 > 100 µM | UACC-257 > 100 µM | HCC 2998 > 100 µM

CC(C)CC(NC(=O)C(COc1ccc([N+](=O)[O-])cc1)Cc1ccccc1)C(=O)Nc1ccccc1 (centres undefined)
inactive: NCI-H460 4.29 µM | HCT-116 22.2 µM | OVCAR-4 2.35 µM | MDA-MB-231 21.1 µM | SK-MEL-2 21.7 µM | NCI-H23 13 µM | SK-MEL-5 7.83 µM | DU-145 > 100 µM | IGROV-1 7.8 µM | SN12C 37.5 µM | OVCAR-5 40.3 µM | TK-10 11.5 µM | MDA-N 10.3 µM | ACHN 16.8 µM | SK-OV-3 13.8 µM | UO-31 7 µM | UACC-257 25.7 µM | HCC 2998 13.1 µM | EKVX 23.6 µM
